Experimental data reported in patent USRE39707E1, “Camptothecin derivatives” (Catholic Healthcare West, priority 2001, dated 2007).

What was measured:
[1] = tested on: MTG-B mouse mammary Adenocarcinoma; test: In vivo efficacy in C3H/HeJ mice bearing MTG-B tumors; details: for T (Surviving days after treatment of MTG-B mouse mammary Adenocarcinoma In C3H/Hej mice): i.p., control mice survived 6 days; for CD/Taxol: ratio of extra days of survival with compound to extra days of survival with taxol, each compared to control; for T/C %: surviving days treated / surviving days control x 100%, control 6 days
Method: This example provides directions for performing in vivo efficacy tests of the compounds of the invention on C3H/HeJ mice bearing MTG-B tumors.
Studies on the compounds of this invention were performed on C3H/HeJ mice bearing […] tumors. […] Treatment was initiated at that time, with the first day of treatment designated as day 0 for calculation and plots. The mice were injected i.p. with thee drug dose levels (⅓, ½, 1×MTD) using both a single injection and the schedule of Q2D×3 (every 2 days for a total of 3 treatments at ⅓ MTD). Control groups of mice bearing 8 mm diameter tumors were treated with vehicle alone. […] When a tumor reached 1.5 g, the mouse bearing the tumor was euthanized. Surviving days measured from day 0 for mice treated with anticancer drugs (T) and surviving days measured from day 0 for control mice (C) were recorded. Tumor growth inhibition values (T/C %) were calculated using the formula T/C %=(surviving days of mice treated with an anticancer drug T/surviving days of control mice C)×100%, as shown in Table II.
The final right-hand column in Table II provides a ratio of the extra days of survival of mice treated with the compounds of the invention (compared to control) to the extra days of survival of mice treated with taxol (compared to control).

VM46 = test: Cell colony formation assay, VM46 cells; format: cell-based; details: 72 hours drug exposure
Method: (§1) This example provides directions for growing cells and testing compounds of the invention for their effect on the growth of the cells. All cells were purchased from DCIDC Tumor Repository, NCI, NIH.
(§2) Four hundred cells (HCT 116, PC-3, NCI/ADR-RES: human breast cancer cells) or five hundred cells (VM46) were plated in 60 mm Petri dishes containing 2.7 ml of medium (modified McCoy's 5a medium) containing 10% fetal bovine serum and 100 units/ml penicillin and 100 mg/ml streptomycin. The cells were incubated in a CO2 incubator at 37° C. for 5 hours for attachment to the bottom of Petri dishes. Drugs were made fresh in medium at ten times the final concentration, and then 0.3 ml of this stock solution was added to the 2.7 ml of medium in the dish. The cells were then incubated with drugs for 72 hours at 37° C. At the end of the incubation the drug-containing media were decanted, the dishes were rinsed with 4 ml of Hank's Balance Salt Solution (HBSS), 5 ml of fresh medium was added, and the dishes were returned to the incubator for colony formation. The cell colonies were counted using colony counter after incubation for 7 days for HCT116 cells and PC-3 cells and 8 days for VM46 cells, respectively.
(§3) Values of ID50 (the drug concentration producing 50% inhibition of colony formation) may be determined for each tested compound. The directions described in this example may be used in other cells, such as DU-145.

HCT116 = test: Cell colony formation assay, HCT116 cells; format: cell-based, human; details: 72 hours drug exposure
Method: as §1
as §2, with “The” for “Four hundred cells (HCT 116, PC-3, NCI/ADR-RES: human breast cancer cells) or five hundred cells (VM46) were plated in 60 mm Petri dishes containing 2.7 ml of medium (modified McCoy's 5a medium) containing 10% fetal bovine serum and 100 units/ml penicillin and 100 mg/ml streptomycin. The”

PC-3 = test: Cell colony formation assay, PC-3 cells; format: cell-based, human; details: 72 hours drug exposure
Method: as §1, §2, §3

C3H/HeJ mice = details: maximum tolerated dose at day 40, C3H/HeJ mice
Method: This example provides directions for performing in vivo toxicity tests of the compounds of the invention on C3H/HeJ mice.
Acute toxicities of the compounds of this invention are evaluated on C3H/HeJ mice (body weight 18-22 g). The MTD40 (maximum tolerated dose at day 40) values were determined by the standard procedure described by Gad and Chengelis (see, for example, “Acute Toxicology Testing,” 2nd Ed., Shayne O. Gad and Christopher P. Chengelis, pp. 186-195 (Academic Press)). In the consecutive type studies, 2 mice were dosed at low and moderate doses of 40 and 100 mg/kg. If no severe and irreversible toxicity (euthanasia is required) occurs at these doses, a new pair of animals was initiated at 180 mg/kg, which is 1.8 times higher than 100 mg/kg. Sequential dosages (about 3 doses on 3 pairs of animals, i.e. 2 mice for each drug dose) were increased by a factor of 1.8 until severe and irreversible toxicity (euthanasia is required) occurred. Then another pair of animals was initiated at the highest nonlethal dosage, and successive dosages were increased by a factor of 1.15. The result of this exercise was two dosages, one apparently nonlethal and the other lethal if severe and irreversible toxicity occurs and euthanasia is required, separated by a factor of 1.15. Six mice were dosed at each dosage. If no severe and irreversible toxicity occurred at the lower dosage and at least one with severe and irreversible toxicity occurred at the higher dose, then the lower dose was considered to be the MTD. The compounds of this invention were administered to C3H/HeJ mice by intraperitoneal injection. Drug toxicity was evaluated on mice checked daily for 45 days.

| Compound | T (Surviving days after treatment of MTG-B mouse mammary Adenocarcinoma In C3H/Hej mice) [1] | CD/Taxol [1] | T/C % [1] | In vitro efficacy: Survival (%) of cells line VM46 (VM46; 1 nM) | In vitro efficacy: Survival (%) of cells line VM46 (VM46; 10 nM) | In Vitro Efficacy: Survival (%) of HCT116 (HCT116; 1 nM) | In Vitro Efficacy: Survival (%) of HCT116 (HCT116; 10 nM) | In Vitro Efficacy: Survival (%) of HCT116 (HCT116; 100 nM) | In vitro efficacy: Survival (%) of cells line PC-3 (PC-3; 1 nM) | In vitro efficacy: Survival (%) of cells line PC-3 (PC-3; 5 nM) | In Vivo Toxicity MTD40 (ip, mg/kg) in C3H/Hej Mice (C3H/HeJ mice) |
| --- | --- | --- | --- | --- | --- | --- | --- | --- | --- | --- | --- |
| CCC1(OC(=O)COc2cccc(Cl)c2Cl)C(=O)OCc2c1cc1n(c2=O)Cc2cc3ccccc3nc2-1 (centres unmarked) [Example 000412, Camptothecin-20-O-ester of 2,3-dichlorophenoxyacetic acid] | 17 days | 3.7 | 283% | 50.72% | 0% | 81.36% | 0% | 0% | 83.00% | 8.68% | 100 mg/kg |
| CCC1(OC(=O)COc2ccc(I)cc2)C(=O)OCc2c1cc1n(c2=O)Cc2cc3ccccc3nc2-1 (centres unmarked) [Example 000413, Camptothecin-20-Oester of 4-iodophenoxyacetic acid] | 18 days | 4 | 300% | 73.61% | 0% | 87.62% | 0% | 0% | 89.51% | 33.64% | >150 mg/kg |
| CCC1(OC(=O)COc2c(F)c(F)c(F)c(F)c2F)C(=O)OCc2c1cc1n(c2=O)Cc2cc3ccccc3nc2-1 (centres unmarked) [Example 000410, Camptothecin-20-O-ester of 2,3,4,5,6-pentafluorophenoxyacetic acid] | 12 days | 2.0 | 200% | 68.75% | 0% | 88.96% | 0% | 0% | 93.31% | 23.33% | 45 mg/kg |
| CC(=O)O[C@H]1C(=O)[C@@]2(C)[C@H]([C@H](OC(=O)c3ccccc3)[C@]3(O)C[C@H](OC(=O)[C@H](O)[C@@H](NC(=O)c4ccccc4)c4ccccc4)C(C)=C1C3(C)C)[C@]1(OC(C)=O)CO[C@@H]1C[C@@H]2O [Taxol, reference compound] | 9 days |  | 150% | 80.59% | 70.82% | 86.40% | 0% | 0% | 82.80% | 41.36% | 40.6 mg/kg |
| CCC1(OC(=O)COc2ccccc2[N+](=O)[O-])C(=O)OCc2c1cc1n(c2=O)Cc2cc3ccccc3nc2-1 (centres unmarked) [Example 000411, Camptothecin-20-O-ester of 2-nitrophenoxyacetic acid] | 8 days | .7 | 133% | 76.87% | 0% | 95.13% | 0% | 0% | 90.09% | 33.09% | >150 mg/kg |
| CCC1(OC(=O)COc2ccc(Cl)cc2C)C(=O)OCc2c1cc1n(c2=O)Cc2cc3ccccc3nc2-1 (centres unmarked) [Example 000127, Camptothecin-20-O-ester of 4-chloro-2-methylphenoxyacetic acid] | 13 days | 2.3 | 217% | 47.33% | 0% | 86.48% | 0% | 0% | 88.97% | 31.46% | >150 mg/kg |
| CC[C@@]1(OC(=O)COc2ccc(Br)cc2)C(=O)OCc2c1cc1n(c2=O)Cc2cc3ccccc3nc2-1 [Example 000315, Camptothecin-20-Oester of 4-bromophenoxyacetic acid] | 18 days | 4 | 300% | 64.37% | 0% | 100% | 0% | 0% | 87.38% | 22.24% | >150 mg/kg |
| CCC1(OC(=O)COc2ccc(C=O)cc2)C(=O)OCc2c1cc1n(c2=O)Cc2cc3ccccc3nc2-1 (centres unmarked) [Example 000313, Camptothecin-20-O-ester of 4-formylphenoxyacetic acid] | 9 days | 1.0 | 150% | 41.58% | 0% | 100% | 0% | 0% | 89.51% | 21.16% | >150 mg/kg |
| CCC1(OC(=O)COc2ccc3c(c2)OCO3)C(=O)OCc2c1cc1n(c2=O)Cc2cc3ccccc3nc2-1 (centres unmarked) [Example 000419, Camptothecin-20-O-ester of 3,4-methylenedioxyphenoxyacetic acid] | 12 days | 2.0 | 200% | 75.46% | 0% | 100% | 0% | 0% | 88.43% | 43.94% | 45 mg/kg |
